Laboratory results from patent US20210196711A1, “LYSINE-SPECIFIC HISTONE DEMETHYLASE AS A NOVEL THERAPEUTIC TARGET IN MYELOPROLIFERATIVE NEOPLASMS” (Imago Biosciences, Inc., priority 2015, published 2021).
Counter-ions that a name gives are not always drawn.

Columns and labels:
[1] = test system: JAK2^V617F knock-in mouse model of myeloproliferative neoplasm (MPN); test: JAK2V617F knock-in mouse model of myeloproliferative neoplasm; assay type: in vivo; conditions: JAK2^V617F mice, 25 mg/kg/day, 56 days, compared to vehicle
Protocol: Compound [IMG 7289; need number or name inserted] was evaluated in the JAK2^V617F knock-in mouse model of myeloproliferative neoplasm (MPN). The procedure of Hasan et al. Blood, 2013, 122, 1464-1477, was followed. (See also Mullally et al. Cancer Cell 2010, 17, 584-596.) Animals bearing the JAK2^V617F were treated with Compound 2 tosylate (25 mg/kg/day) or vehicle for a total of 56 days. Blood samples were taken at the indicated time points and analyzed for hematocrit, white blood cell count (WBC) and platelets as described in Hasan et al. Non-drug-treated animals expressing the JAK2^V617F mutation manifested elevated levels of platelets, WBCs, and hematocrit as compared to wild-type animals.

[2] = primary myelofibrosis patients, 50 to 100 mg/day in combination with prednisone; cited from earlier work

## CN1CCN(C(=O)[C@H](CCCN[C@@H]2C[C@H]2c2ccc(F)cc2)NC(=O)c2ccc(-n3ccnn3)cc2)CC1 [Compound 2 tosylate]
[1]
  hematocrit: reduction
  platelet levels: reduction
  white blood cell count: reduction

## O=C1CCC(N2C(=O)c3ccccc3C2=O)C(=O)N1 (centres unmarked) [Thalidomide]
[2]
  patients with improved anemia and thrombocytopenia: approximately 60%
  patients with reduced spleen size: approximately 20%
